Patent EP0239461A1, “N-¬¬(hydroxy-2-phenyl)(phenyl)methylene amino-2 ethyl acetamide derivatives, process for their preparation and their therapeutical use” (SYNTHELABO, priority 1986, dated 1987)

Columns and labels:
[1] = Acute toxicity, oral LD50 in the mouse; settings: in vivo, read-out: DL50 (mg/kg) p.o.
Experimental: Leur toxicité aigüe est faible : la dose léthale à 50 % (LD50) déterminée chez la souris est supérieure à 1000 mg/kg par la voie orale pour la plupart d'entre eux.
(§1) Le tableau suivant donne les toxicités et les diminutions maximales d'ulcères obtenues aux doses indiquées, pour quelques composés de l'invention.

[2] = test system: ulcère d'estomac induit par la phénylbutazone; experiment: Phenylbutazone-induced stomach ulcer in the rat; format: in vivo; settings: po, maximal decrease of ulcers, 30 min before phenylbutazone 200 mg/kg p.o., female Wistar rats, scored 2 h later, read-out: Diminution ulcération (%); for inhibition in vivo at 30 mg/kg: dose 30 mg/kg p.o.; for inhibition in vivo at 100 mg/kg: dose 100 mg/kg p.o.
Experimental: Les composés de l'invention ont été testés quant à leur effet sur l'ulcère d'estomac induit par la phénylbutazone chez le rat.
Le test est effectué sur des rats Wistar femelles pesant 180-210 g à jeun depuis 20 heures, répartis en blocs randomisés.
Les ulcères sont provoqués par l'administration orale de phénylbutazone en solution mole à mole avec de la soude, à la dose de 200 mg/kg.
Les composés à étudier sont administrés par voie orale à raison de 10, 30 ou 100 mg/kg, 30 minutes avant l'ingestion de phénylbutazone, les animaux témoins ne recevant que le placébo.
Deux heures après l'administration de l'agent ulcérigène, les animaux sont sacrifiés par inhalation de chloroforme. Les estomacs sont prélevés et le degré d'ulcération est noté en aveugle de 0 à 3.
as §1

Row | Compound | LD50 [1] [mg/kg] | inhibition in vivo at 30 mg/kg [2] [%] | inhibition in vivo at 100 mg/kg [2] [%] | inhibition in vivo at 10 mg/kg ([2]; dose 10 mg/kg p.o.) [%]
1 | O=C(CN1CCC(O)CC1)NCCN=C(c1cc(Cl)ccc1O)c1ccccc1Cl [Composé n° 1, N-[[[(chloro-5 hydroxy-2 phényl)(chloro-2 phényl)méthylène]amino]-2 éthyl] (hydroxy-4 pipéridinyl-1)-2 acétamide] | > 1000 | 100 | – | –
2 | O=C(CN1CCC(O)CC1)NCCN=C(c1ccccc1)c1cc(Cl)ccc1O [Composé n° 2] | > 1000 | – | 100 | –
3 | Cc1ccc(O)c(C(=NCCNC(=O)CN2CCC(O)CC2)c2ccccc2Cl)c1 [Composé n° 7, N-[[[(méthyl-5 hydroxy-2 phényl)(chloro-2 phényl)méthylène]amino]-2 éthyl] (hydroxy-4 pipéridinyl-1)-2 acétamide] | > 1000 | 95 | – | –
4 | Cc1cc(Cl)cc(C(=NCCNC(=O)CN2CCC(O)CC2)c2ccc(Cl)cc2)c1O [compound 3] | > 1000 | 94 | – | –
5 | Cc1ccc(C(=NCCNC(=O)CN2CCC(O)CC2)c2cc(Cl)ccc2O)cc1 [compound 4] | > 1000 | – | 96 | –
6 | O=C(CN1CCC(O)CC1)NCCN=C(c1ccc(Cl)c(Cl)c1)c1cc(Cl)ccc1O [compound 5] | > 1000 | 92 | – | –
7 | O=C(CN1CCC(O)CC1)NCCN=C(c1ccccc1Cl)c1cc(Cl)cc(Cl)c1O [compound 6] | > 1000 | 100 | – | –
8 | O=C(CN1CCC(O)CC1)NCCN=C(c1cc(Cl)ccc1O)c1ccc(Cl)cc1Cl [compound 8] | > 1000 | – | 98 | –
9 | Cc1ccccc1N1CCN(CC(=O)NCCN=C(c2cc(Cl)ccc2O)c2ccccc2Cl)CC1 [compound 19] | > 1000 | – | 71 | –
10 | O=C(CN1CCNCC1)NCCN=C(c1cc(Cl)ccc1O)c1ccccc1Cl [compound 23] | – | – | – | 87
11 | O=C(CN1CCC(O)CC1)NCCNC(c1cc(Cl)ccc1O)c1ccccc1Cl (stereo not shown) [compound 26] | > 1000 | 97 | – | –
12 | Cc1ccccc1N1CCN(CC(=O)NCCNC(c2cc(Cl)ccc2O)c2ccccc2Cl)CC1 (stereo not shown) [compound 27] | > 1000 | 98 | – | –
13 | O=C(CN1CCN(c2ccc(Cl)cc2)CC1)NCCNC(c1cc(Cl)ccc1O)c1ccccc1Cl (stereo not shown) [compound 29] | > 1000 | 98 | – | –
